Like-named read-outs stand apart in the source and are kept apart here.
Columns and labels:
PD-L1 = PD-L1 (Homo sapiens (Human), UniProt Q9NZQ7); test: PD-L1/PD-L1 dimerization biochemical protein-protein interaction assay (ALPHA); type: binding; conditions: read-out: AC50 PDL1 Dimer 1 nM
PD-1/PD-L1 = PD-1/PD-L1 (Homo sapiens (Human), UniProt Q9NZQ7); test: PD-1/PD-L1 biochemical protein-protein interaction assay (ALPHA); type: binding; conditions: read-out: IC50 PD-L1-PD1
[1] = 0.5 nM His tagged PD-L1 and 0.5 nM FLAG tagged PD-L1, Table 4B
[2] = 0.3 nM His tagged PD-L1, 2.5 nM biotinylated Fc-PD-1, Table 3B
[3] = 0.5 nM His tagged PD-L1 and 0.5 nM FLAG tagged PD-L1, Table 4A
[4] = 0.3 nM His tagged PD-L1, 2.5 nM biotinylated Fc-PD-1, readings of 0.064 nM are equal to or less than 0.064 nM

PD-L1, sequence (Q9NZQ7 19-238): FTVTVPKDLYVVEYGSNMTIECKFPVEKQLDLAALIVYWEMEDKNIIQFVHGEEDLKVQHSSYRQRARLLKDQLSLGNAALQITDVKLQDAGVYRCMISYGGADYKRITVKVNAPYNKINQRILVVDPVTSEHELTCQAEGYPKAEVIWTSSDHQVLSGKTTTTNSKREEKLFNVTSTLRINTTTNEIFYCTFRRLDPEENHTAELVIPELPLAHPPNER
PD-L1, sequence (Q9NZQ7 19-238): as above
PD-1/PD-L1, sequence (Q9NZQ7 19-238): as above

| Structure (SMILES) | AC50 (PD-L1; [1]) | IC50 (PD-1/PD-L1; [2]) | AC50 (PD-L1; [3]) | IC50 (PD-1/PD-L1; [4]) |
| --- | --- | --- | --- | --- |
| COc1nc(O[C@H]2CCc3c(-c4cccc(-c5cc(F)c(CNC[C@@H]6CCC(=O)N6)c(OC)n5)c4Cl)cccc32)c(C(F)(F)F)cc1CN1CC[C@H](C(=O)O)C1 [B-188] | 12 nM | 0.064 nM | – | – |
| COc1cc(-c2cccc(-c3cccc4c3CC[C@@H]4Oc3nc(OC)c(CN4CC[C@@H](C(=O)O)C4)cc3C(F)(F)F)c2Cl)cc(F)c1CNC[C@@H]1CCC(=O)N1 [B-195] | 5.79 nM | 0.064 nM | – | – |
| COc1cc(N[C@H]2CCc3c(-c4cccc(-c5ccc(CNC[C@@H]6CCC(=O)N6)c(OC)n5)c4Cl)cccc32)c(C(F)(F)F)nc1CN1CC[C@@](C)(C(=O)O)C1 [A-42] | – | – | 12.6 nM | ≤ 0.064 nM |
| COc1nc(-c2cccc(-c3cccc4c3CC[C@@H]4Nc3nc(OC)c(CN4CC5(C(=O)O)CCC4CC5)nc3C(F)(F)F)c2Cl)ccc1CNC[C@H]1CCC(=O)N1 [A-62] | – | – | 45.4 nM | ≤ 0.064 nM |
| COc1nc(-c2cccc(-c3cccc4c3CC[C@@H]4Oc3nc(OCc4ccc(-n5cccn5)nc4)c(CN4CC5(C(=O)O)CCC4CC5)cc3Cl)c2Cl)ccc1CNC[C@@H]1CCC(=O)N1 [B-56] | 41 nM | 0.189 nM | – | – |
| COc1nc(O[C@H]2CCc3c(-c4cccc(-c5cc(C)c(CN6CC(C)(O)C6)c(OC)n5)c4Cl)cccc32)c(Cl)cc1CN1CC[C@@H](C(=O)O)C1 [B-58] | 49.7 nM | 0.064 nM | – | – |
| COc1nc(-c2cccc(-c3cccc4c3CC[C@@H]4Oc3nc(OC)c(CN(C)CC(=O)O)cc3C(F)(F)F)c2Cl)ccc1CNC[C@@H]1CCC(=O)N1 [B-258] | 5.9 nM | 0.064 nM | – | – |
| COc1cc(N[C@H]2CCc3c(-c4cccc(-c5ccc(CNC[C@@H]6CCC(=O)N6)c(OC)n5)c4Cl)cccc32)c(C(F)(F)F)cc1CN1CC[C@@H](C(=O)O)C1 [A-11] | – | – | 34.8 nM | ≤ 0.064 nM |
| COc1nc(-c2cccc(-c3cccc4c3CC[C@@H]4Oc3nc(OC)c(CN[C@]4(C(=O)O)C[C@H](F)C4)cc3C(F)(F)F)c2Cl)ccc1CNC[C@@H]1CCC(=O)N1 [B-230] | 27.5 nM | 0.064 nM | – | – |
| COc1nc(O[C@H]2CCc3c(-c4cccc(-c5cc(C)c(CN6CC(C)(O)C6)c(OC)n5)c4Cl)cccc32)c(Cl)cc1CN1CC(C(=O)O)C1 [B-59] | 107 nM | 0.113 nM | – | – |
| COc1nc(-c2cccc(-c3cccc4c3CC[C@@H]4Oc3nc(OC)c(CN4CC[C@@H](C(=O)N=S(C)(=O)NC(C)=O)C4)cc3Cl)c2Cl)ccc1CNC[C@@H]1CCC(=O)N1 (stereo partly drawn) [B-163] | 39.1 nM | 0.064 nM | – | – |
| COc1nc(-c2cccc(-c3cccc4c3CC[C@@H]4Nc3nc(OC)c(CN[C@@H](C)C(=O)O)nc3C(F)(F)F)c2Cl)ccc1CNC[C@H]1C[C@](C)(O)C1 [A-86] | – | – | 29.2 nM | ≤ 0.064 nM |
| COc1nc(-c2cccc(-c3cccc4c3CC[C@@H]4Oc3nc(OC)c(CN4CCC[C@]4(C)C(=O)O)cc3C)c2Cl)ccc1CNC[C@@H]1CCC(=O)N1 [B-238] | 34.9 nM | 0.064 nM | – | – |
| COc1nc(O[C@H]2CCc3c(-c4cccc(-c5cc(C)c(CN6CC(C)(O)C6)c(OC)n5)c4Cl)cccc32)c(Cl)cc1CN1CC[C@H](C(=O)O)C1 [B-60] | 55.6 nM | 0.064 nM | – | – |
| COc1nc(-c2cccc(-c3cccc4c3CC[C@@H]4Oc3nc(OC4CC4)c(CNC4(C(=O)O)CC4)cc3Cl)c2Cl)ccc1CNC[C@@H]1CCC(=O)N1 [B-201] | 24.4 nM | 0.064 nM | – | – |
| COc1cc(-c2cccc(-c3cccc4c3CC[C@@H]4Oc3nc(OC)c(CN4CC[C@@H](C(=O)O)C4)cc3Cl)c2Cl)cc(F)c1CNC[C@@H]1CCC(=O)N1 [B-131] | 10.5 nM | 0.064 nM | – | – |
| COc1nc(-c2cccc(-c3cccc4c3CC[C@@H]4Nc3nc(OC)c(CNC(C)(C)C(=O)O)cc3C(F)(F)F)c2Cl)ccc1CN[C@H]1C[C@](C)(O)C1 [A-92] | – | – | 15.1 nM | ≤ 0.064 nM |
| COc1cc(-c2cccc(-c3cccc4c3CC[C@@H]4Oc3nc(OC)c(CN4CCC[C@@]4(C)C(=O)O)cc3C(F)(F)F)c2Cl)ccc1CNC[C@@H]1CCC(=O)N1 [B-118] | 0.988 nM | 0.064 nM | – | – |

Reference: patent US10774071B2, “PD-1/PD-L1 inhibitors” (Gilead Sciences, Inc., priority 2018, dated 2020)
